# US5852004A, “Drug and pharmaceutical composition for the treatment of lesions of the digestive tract” (Societe Valbiofrance, priority 1994, dated 1998)
# Where two headings read alike, the source gives them in different places.
# B1: STBI: trypsin inhibitor originating from soya, from Sigma (protein, UniProt P01070 25-205, looked up)
# Trypsin inhibitor A: DFVLDNEGNPLENGGTYYILSDITAFGGIRAAPTGNERCPLTVVQSRNELDKGIGTIISSPYRIRFIAEGHPLSLKFDSFAVIMLCVGIPTEWSVVEDLPEGPAVKIGENKDAMDGWFRLERVSDDEFNNYKLVFCPQQAEDDKCGDIGISIDHDDGTRRLVVSKNKPLVVQFQKLDKESL
# How the values were obtained:
# [1] = target: T1, beta TGF (Homo sapiens, UniProt P01137); experiment: protection of beta TGF against trypsin, read by inhibition of tritiated thymidine incorporation in CCL64 cells; format: cell-based; conditions: 37° C. 10 min
# T1 construct: from tissue; host or cells: human blood platelets
# Method: In order to measure the capacity of certain CMDBSs to interact with members of the beta TGF family and, by means of this interaction, to protect the beta TGFS, a grading test was devised.
# The beta 1 TFG is prepared from human blood platelets according to a protocol described in numerous publications (for example Growth factors and their receptors, 1992, vol 1 pp 419-472, written by A. Roberts and M. Sporn, edited by A. Roberts and M. Sporn, and published by Springer Verlag Berlin) and is commonly used by persons of ordinary skill in the art. The beta TGF biological activity test used in this example is that of the inhibition of CCL64 cells (from the American Tissue Culture Collection). This inhibition is measured by the ability of the beta TGF to inhibit the incorporation of tritiated thymidine in a dose dependent manner in these CCL64 cells stimulated by the FGF or by fetal calf serum according to the protocol described by Van Zolen in Progress in Growth Factor Research, 1990, 2, pp 131 to 152. Two doses of beta TGF are used, one corresponding to the 50% inhibition capacity of the incorporation of tritiated thymidine (defined as the inhibiting activity unit) and the other corresponding to the 100% inhibition capacity.
# The final volume of the incubated solution is adjusted to 1 ml and incubation is carried out at 37° C. for a varying length of time (10 minutes in the example described (Table 1)).
# 20 μl samples […] are taken from each of the incubation reactions and added to CCL64 cells cultivated in 24-well plates, each well containing one milliliter of culture medium according to the aforementioned protocol described by E. Zohlen. In these conditions, the final concentration of beta TGF per well is 1 ng/ml.
# The incubation mixture contained 50 ng of beta TGF (in 0.1% bovine serum albumin) and trypsin (500 μg). Mesoglycan or sulodexide or dextran sulfate or dextran or sucrase are used at the dose of 5000 μg.
# The beta TGF biological activity is measured as described above after a dilution of 50 times and by using CCL64 cells.
# [2] = system: anastomosis of the rectocolic junction
# Method: Male Wistar rats (Wi/Wi, Ico, Iffa Credo France), weighing 250 to 300 g are anesthetized with sodic pentobarbital. A subumbilical midline laparotomy is performed over 1.5 cm. The rectocolic junction is individualized and then sectioned with bistoury. […] The anastomosis is carried out according to a termino-terminal mode in a plane by five separate stitches of polyglactine 910 thread, diameter 6/0. The knots are made of 6 loops. Parietal closure is performed in two planes. The rats are divided into two groups of 7 rats. The experiments are conducted in double blind. Samples are taken on the 2nd, 4th and 7th days after the operation. The quality of the healing is studied by measuring the rupture pressure of the anastomosis, in millimeters of mercury. The colon is sectioned 2 cm on either side of the anastomosis, one end being connected to a self-pushing syringe which injects water at a low, constant rate, and the other end being linked to a manometer. Pressure is recorded continuously on a reel of paper. The rupture pressure is determined by analyzing the tracing.
# [3] = system: colitis induced by acetic acid; experiment: colitis induced by acetic acid; format: in vivo, Sprague Dawley male rats; conditions: for Alteration score: per os twice a day for three days, score 72 hours after acetic acid, mean ± standard error
# Method: Groups of 6 Sprague Dawley male rats weighing approximately 200 g are placed in hydric fasting 24 hours before the test. On the day of the test, the animals are anesthetized with pentobarbital (30 mg/kg) by intraperitoneal route. After laparotomy, a colic instillation of 2 ml of 5% acetic acid is performed 2 cm from the caecum. The acetic acid is left in contact for 10 seconds and the colon is then rinsed by 3 ml of saline phosphate buffer (PBS) at pH 7. The wound is then closed. The animals are sacrificed 72 hours later by cervical elongation. The colic alterations are noted on the following scale:
# 2: superficial necrosis of the mucosa
# 4: major necrosis of the mucosa with edema
# A third group receives sucralfate (marketed under the name of ULCAR Pharmaceutical Laboratories Fabre). The supplier's recommended dose is used (500 mg/kg, i.e. 100 mg per rat) administered orally twice a day for three days.
# The mean and the standard error were calculated for each batch of animals. Statistical comparison is performed using White's non parametric test compared to the control.
# [4] = system: complement system; conditions: according to Mauzac et al.
# [5] = system: trypsin; experiment: enzymatic activity of trypsin on substrate S87
# Method: The enzymatic activity of trypsin was measured by spectrophotometric absorption of the transformation product of S 87 versus incubation time.
# [6] = system: FGF 1; experiment: potentialization of FGF1 biological activity, tritiated thymidine incorporation in CCL39 cells; format: cell-based
# From the text: (§1) The cells used in this example are CCL39 cells from the American Tissue Culture Collection. The conditions concerning culture and the measurement test of FGF biological activity are the same as those described in the publication by Tardieu and coll. in the Journal of Cellular Physiology, 1992. The FGF growth factors used are the FGF 1 and FGF 2 recombinant forms.
# (§2) In these experiments, the FGF 1 or 2 is used at a dose corresponding to the effective dose (indicated ED50) in order to induce a stimulation of the biological activity of 50% of the dose inducing the maximum stimulation. The biological activity is measured by the ability to induce an increase of the incorporation of tritiated thymidine in the cells according to protocols extensively described in numerous publications such as the previously mentioned publication by Tardieu et coll. and also in French Patent 2 644 066.
# (§3) In addition to this ability to potentialize the biological activity of the FGFs, the HBGFPPs protect the FGFs against thermal degradations and the inactivation induced by the proteolytic action of trypsin (FIGS. 4 and 5). Similarly, these HBGFPPs protect FGF1 and 2 against an inactivation induced by the proteolytic activity of trypsin (FIGS. 5A and 5B).
# [7] = system: FGF 2; experiment: potentialization of FGF2 biological activity, tritiated thymidine incorporation in CCL39 cells; format: cell-based
# From the text: as §1, §2, §3
# [8] = system: FGF1; experiment: protection of FGF1 against thermal degradation; format: cell-based; conditions: FIG. 3; 20° C. and 37° C., 1, 7, 15, 30 days
# Method: (§4) (a) and 37° C. (b) for 1, 7, 15, 30 days. The measurement of the biological activity presented in abscissa corresponds to the stimulation unit values (ED50) of the incorporation of tritiated thymidine in CCL39 cells.
# [9] = system: FGF2; experiment: protection of FGF2 against thermal degradation; format: cell-based; conditions: FIG. 4; 20° C. and 37° C., 1, 7, 15, 30 days
# Method: as §4
# [10] = system: 125I-FGF1; experiment: protection of 125I-FGF1 against proteolytic degradation by trypsin (gel, autoradiography); format: biochemical; conditions: FIG. 5A, 37° C.
# Method: Proteolytic digestion was carried out at 37° C. and the samples were separated by 18% polyacrylamide gel electrophoresis. The gels are dried and autoradiographed. The first track contains the 125I-FGF1 on its own.
# [11] = system: 125I-FGF2; experiment: protection of 125I-FGF2 against proteolytic degradation by trypsin (gel, autoradiography); format: biochemical; conditions: FIG. 5B, 37° C.
# From the text: The arrangement of the tracks is identical to that presented for the ^125 I-FGF1 in FIG. 5A.
# [12] = system: FGF; experiment: semi-quantitative evaluation of FGF protection against trypsin (densitometry of radio-labelled FGF); format: biochemical; conditions: FGF + trypsin + polymer; radio-labelled FGF found vs quantity deposited
# Method: As described above, a constant quantity of radioactive FGF is incubated under various conditions. After autoradiography of the reaction products, the non degraded quantity of radioactive FGF is quantified by densitometry. The values correspond to the percentage of radio-labelled FGF found compared to the quantity deposited at the start of reaction (Table 5).
# [13] = system: FGF; conditions: Tardieu et al. 1992; cited from earlier work
# [14] = beta TGF 50 ng + polymer 5000 μg + trypsin 500 μg
# [15] = beta TGF 50 ng + polymer 5000 μg, no trypsin
# [16] = 10 μg/ml of sulodexide or 20 μg/ml of heparin, CCL39 cells
# T1 sequence (P01137 279-390 limits assumed): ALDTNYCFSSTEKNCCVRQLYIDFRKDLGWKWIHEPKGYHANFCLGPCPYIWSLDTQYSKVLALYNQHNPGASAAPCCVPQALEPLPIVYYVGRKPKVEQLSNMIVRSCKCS
molecule,measurement,setting,value
carboxymethyl dextran benzylamide sulfonate [CMDBS],% inhibiting activity of the incorporation of tritiated thymidine in CCL64 cells,[1]; [14],75%
same,% inhibiting activity of the incorporation of tritiated thymidine in CCL64 cells,[1]; [15],100%
same,"Rupture pressure, mean",[2]; DAY 2,67.28 mm of Hg
same,"Rupture pressure, mean",[2]; DAY 4,144.8 mm of Hg
same,increased resistance vs untreated,[2]; Day 4,about 10%
same,difference between treated and untreated resistances,[2]; Day 7,no longer any difference
same,Alteration score,[3],0.70 ± 0.37
same,reduction of the seriousness of the colic lesions,[3]; p≤0.05,about 75%
same,"anticomplement activity, CH50",[4],1.1 µg
same,inhibiting power on the activity of trypsin,[5],no inhibiting power
same,trypsin activity on S87,[5]; trypsin 10 ug/ml + S87 + 5 μg/ml CMDBS,100
same,trypsin activity on S87,[5]; trypsin + S87 + 50 μg/ml CMDBS,100
same,trypsin activity on S87,[5]; trypsin + S87 + 500 μg/ml CMDBS,100
heparin,% inhibiting activity of the incorporation of tritiated thymidine in CCL64 cells,[1]; [14],10%
same,% inhibiting activity of the incorporation of tritiated thymidine in CCL64 cells,[1]; [15],100%
same,ED50 of FGF 1 in the presence of polymer,[6]; [16],0.4 ng/mL
same,potentialization of the biological activity of FGF1,"[6]; FIG. 2A, 20 μg heparin, 10 μg mesoglycan or 10 μg sulodexide",potentialization
same,ED50 of FGF 2 in the presence of polymer,[7]; [16],0.2 ng/mL
same,potentialization of the biological activity of FGF2,"[7]; FIG. 2B, 20 μg heparin, 10 μg mesoglycan or 10 μg sulodexide",potentialization
same,protective effect against thermal degradation of FGF1,[8],protective effect
same,protective effect against thermal degradation of FGF2,[9],protective effect
same,protective effect against proteolytic degradation of 125I-FGF1,[10],protective effect
same,protective effect against proteolytic degradation of 125I-FGF2,[11],protective effect
same,PROTECTION (in %) of the FGF,[12],100%
same,protection of FGFs against proteolysis induced by trypsin,[13],provides protection against proteolysis induced by trypsin
sucralfate [reference compound],Alteration score,[3],2.25 ± 0.48
same,effect on the healing of the ulcers,"[3]; rat, in vivo",no significant effect
B1,trypsin activity on S87,[5]; trypsin + S87 + trypsin inhibitor,0
